How the values were obtained:
[1] = test system: DSS colitis model; test: DSS colitis model; assay type: in vivo, mice; conditions: oral, 20 mg/kg once daily, DSS in drinking water for seven days; for proportion of CD4+ IFNγ+ cells in the colonic lamina propria: flow cytometry; for severity of disease by macroscopic scoring of the colon: score 0 to 4, relative to vehicle group
Source text: Inflammation of the gastrointestinal tract can be caused by numerous factors including food antigens, infectious agents, autoimmunity, or radiation. The dextran sulfate sodium (DSS) model provides a model system where the epithelial barrier is disrupted in the distal intestine allowing for translocation of bacteria and generation of immune responses. DSS model. Mice were given DSS in drinking water for seven days. At project initiation, mice were approximately 8 weeks of age and began dosing 24 hours after being placed on DSS water. Treatments were prepared within a 0.5% methylcellulose solution. The dosage used was 20 mg/kg delivered once daily. At conclusion, colons were scored macroscopically for presence of lesions, blood, stool consistency, mucosal thickening, friability and length on a summarized score from 0 to 4. Flow cytometry. Colons were collected into RPMI/FBS buffer containing collagenase and DNase for digestion. Tissues were digested for 60 minutes under stifling at 37° C. Resultant cellular suspensions were filtered through 100 um strainers, centrifuged and washed in fresh RPMI. Following filtration, immune cells were purified by Percoll gradient of the cell-containing 40% Percoll overlayed onto 70% Percoll solution. After centrifugation, interphase was collected and washed to obtain enriched colonic lamina propria cell fractions. Cells were labeled with mixtures of extracellular and intracellular antibodies to quantify the presence of CD45+ CD3+ CD4+ CD8− IFNγ+ cells. Data was acquired using a FACS Celesta flow cytometer with FACSDiva software.

[2] = test system: CD4+ T cells; test: CD4+ T cell culture, CD4+ IFNγ+ cells by flow cytometry; assay type: cell-based, mice; conditions: 24 hours, PMA and ionomycin final 6 hours, relative to vehicle treated wells
Method: CD4+ T cells are central to the generation of inflammation in a variety of conductions. In addition, CD4+ T cells are primary responders to the IL-18 cytokine. As such, CD4+ T cells were cultured in vitro in the presence of selected compounds to test for pharmacological activity.
CD4+ T cell culture. Spleens were excised from mice and crushed between frosted microscope slides. Cellular suspension was filtered, centrifuged and exposed to hypotonic lysis to remove red blood cells. CD4+ T cells were enriched by magnetic sorting. Cells were re-suspended in IMDM and cultured in CD3- and CD28-coated round bottom wells. Cells were treated with indicated compounds at 10 and 100 nM or vehicle for 24 hours. During the final 6 hours, cells were stimulated with phorbol myristate acetate and ionomycin. Cells were then collected and stained with antibodies to detect CD45+ CD4+ IFNγ+ cells by flow cytometry. Data was acquired using a FACS Celesta flow cytometer with FACSDiva software.

SMILES	proportion of CD4+ IFNγ+ cells in the colonic lamina propria [1]	severity of disease by macroscopic scoring of the colon [1]	proportion of CD4+ IFNγ+ cells ([2]; 10 nM)	proportion of CD4+ IFNγ+ cells ([2]; 100 nM)
COc1cc(-c2cnc(C(=O)C3CCN(C(=O)c4cnnc5ccccc45)CC3)s2)ccc1O [Compound 11, cinnolin-4-yl(4-(5-(4-hydroxy-3-methoxyphenyl)thiazole-2-carbonyl)-piperidin-1-yl)methanone]	reducing	reduced	significantly reduced	significantly reduced
O=C(c1ncc(-c2ncccc2F)s1)[C@@H]1CN(C(=O)c2cc(F)c(F)cn2)CCO1 [Compound 34, 4,5-difluoro-pyridin-2-yl(2-(S)-(5-(3-fluoropyridin-2-yl)thiazol-2-carbonyl)-morpholin-4-yl)methanone]			significantly reduced	significantly reduced
O=C(c1ncc(-c2ncccc2F)s1)[C@@H]1CN(C(=O)c2cnnc3ccccc23)CCO1 [Compound 37, cinnolin-4-yl(2-(S)-(5-(3-fluoropyridin-2-yl)thiazol-2-carbonyl)-morpholin-4-yl)methanone]	reducing	reduced		significantly reduced
O=C(c1ncc(-c2ncccc2F)s1)[C@@H]1CN(C(=O)c2cc(F)ccn2)CCO1 [Compound 40, 4-fluoro-pyridin-2-yl(2-(S)-(5-(3-fluoropyridin-2-yl)thiazol-2-carbonyl)-morpholin-4-yl)methanone]	reducing	reduced	significantly reduced	significantly reduced
O=C1C=C(C(=O)N2CCO[C@H](C(=O)c3ncc(-c4ccccc4F)s3)C2)NN2CC=CC12 (stereo partly drawn) [Compound 69, 2-((S)-2-(5-(2-fluorophenyl)thiazole-2-carbonyl)morpholine-4-carbonyl)-4a,7-dihydropyrrolo[1,2-b]pyridazin-4(1H)-one]				significantly reduced

Reference: patent US12698281B2, “Thiazole derivatives for therapeutic use” (NIMML Institute, priority 2022, dated 2026)
